Data reported in PubChem BioAssay (NCI).
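These data come from cells grown in 96-well plates and exposed to compound for 48 hours at five concentrations. The concentration for full growth arrest is given as TGI.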

test system: KM12 colon; experiment: inhibition of tumour cell growth, NCI panel, 48 h

`Cc1c(-c2nc(N)nc(C3CC3)c2C)nc(N)nc1C1CC1` and `COc1ccc2c(c1)[C@@]13CCN4CC5=CCO[C@H]6CC(=O)N2[C@H]1[C@H]6[C@H]5C[C@H]43` cannot be ordered by TGI: greater than 100 µM for the first, greater than 100 µM for the second.

Compared with `CC(C)(C)OC(=O)c1ccc(NCc2cc(O)ccc2O)cc1`, `NC(=O)NC(=NCc1ccccc1)NCc1ccccc1` is higher in TGI: 12.2 µM for the first, greater than 100 µM for the second.

`COc1cc(/C=C/C(=O)O)ccc1OS(=O)(=O)O` and `CCC1C(=O)OCc2c1cc1n(c2=O)CCC12OCCO2` (configuration not stated) cannot be ordered by TGI: greater than 100 µM for the first, greater than 100 µM for the second.

test system: CAKI-1 renal; experiment: inhibition of tumour cell growth, NCI panel, 48 h

`Cc1c(-c2nc(N)nc(C3CC3)c2C)nc(N)nc1C1CC1` and `COc1ccc2c(c1)[C@@]13CCN4CC5=CCO[C@H]6CC(=O)N2[C@H]1[C@H]6[C@H]5C[C@H]43` cannot be ordered by TGI: greater than 100 µM for the first, greater than 100 µM for the second.

Compared with `CC(C)(C)OC(=O)c1ccc(NCc2cc(O)ccc2O)cc1`, `NC(=O)NC(=NCc1ccccc1)NCc1ccccc1` is higher in TGI: 2.61 µM for the first, greater than 100 µM for the second.

`COc1cc(/C=C/C(=O)O)ccc1OS(=O)(=O)O` and `O=C1NC(=S)S/C1=C/c1ccco1` cannot be ordered by TGI: greater than 100 µM for the first, greater than 100 µM for the second.

With `CCC1C(=O)OCc2c1cc1n(c2=O)CCC12OCCO2` (configuration not stated) the TGI was greater than 100 µM.

test system: HOP-92 NSCLC; experiment: inhibition of tumour cell growth, NCI panel, 48 h

`Cc1c(-c2nc(N)nc(C3CC3)c2C)nc(N)nc1C1CC1` and `COc1ccc2c(c1)[C@@]13CCN4CC5=CCO[C@H]6CC(=O)N2[C@H]1[C@H]6[C@H]5C[C@H]43` cannot be ordered by TGI: greater than 100 µM for the first, greater than 100 µM for the second.

Going from `CC(C)(C)OC(=O)c1ccc(NCc2cc(O)ccc2O)cc1` to `NC(=O)NC(=NCc1ccccc1)NCc1ccccc1`, the TGI rises from 3.4 µM to greater than 100 µM.

`COc1cc(/C=C/C(=O)O)ccc1OS(=O)(=O)O` and `O=C1NC(=S)S/C1=C/c1ccco1` cannot be ordered by TGI: greater than 100 µM for the first, greater than 100 µM for the second.

`CCC1C(=O)OCc2c1cc1n(c2=O)CCC12OCCO2` (configuration not stated) was tested, and the TGI was greater than 100 µM.

test system: SF-539 CNS; experiment: inhibition of tumour cell growth, NCI panel, 48 h

`Cc1c(-c2nc(N)nc(C3CC3)c2C)nc(N)nc1C1CC1` and `COc1ccc2c(c1)[C@@]13CCN4CC5=CCO[C@H]6CC(=O)N2[C@H]1[C@H]6[C@H]5C[C@H]43` cannot be ordered by TGI: greater than 100 µM for the first, greater than 100 µM for the second.

Going from `CC(C)(C)OC(=O)c1ccc(NCc2cc(O)ccc2O)cc1` to `NC(=O)NC(=NCc1ccccc1)NCc1ccccc1`, the TGI rises from 2.73 µM to greater than 100 µM.

`COc1cc(/C=C/C(=O)O)ccc1OS(=O)(=O)O` and `O=C1NC(=S)S/C1=C/c1ccco1` cannot be ordered by TGI: greater than 100 µM for the first, greater than 100 µM for the second.

In the case of `CCC1C(=O)OCc2c1cc1n(c2=O)CCC12OCCO2` (configuration not stated), the TGI is reported as greater than 100 µM.

test system: SNB-19 CNS; experiment: inhibition of tumour cell growth, NCI panel, 48 h

`Cc1c(-c2nc(N)nc(C3CC3)c2C)nc(N)nc1C1CC1` and `COc1ccc2c(c1)[C@@]13CCN4CC5=CCO[C@H]6CC(=O)N2[C@H]1[C@H]6[C@H]5C[C@H]43` cannot be ordered by TGI: greater than 100 µM for the first, greater than 100 µM for the second.

First: CC(C)(C)OC(=O)c1ccc(NCc2cc(O)ccc2O)cc1
Second: NC(=O)NC(=NCc1ccccc1)NCc1ccccc1
The TGI of the first is lower: 38.8 µM for the first, greater than 100 µM for the second.

`COc1cc(/C=C/C(=O)O)ccc1OS(=O)(=O)O` and `O=C1NC(=S)S/C1=C/c1ccco1` cannot be ordered by TGI: greater than 100 µM for the first, greater than 100 µM for the second.

With `CCC1C(=O)OCc2c1cc1n(c2=O)CCC12OCCO2` (configuration not stated) the TGI was greater than 100 µM.

test system: SK-OV-3 ovarian; experiment: inhibition of tumour cell growth, NCI panel, 48 h

`Cc1c(-c2nc(N)nc(C3CC3)c2C)nc(N)nc1C1CC1` and `COc1ccc2c(c1)[C@@]13CCN4CC5=CCO[C@H]6CC(=O)N2[C@H]1[C@H]6[C@H]5C[C@H]43` cannot be ordered by TGI: greater than 100 µM for the first, greater than 100 µM for the second.

First: CC(C)(C)OC(=O)c1ccc(NCc2cc(O)ccc2O)cc1
Second: NC(=O)NC(=NCc1ccccc1)NCc1ccccc1
The TGI of the first is lower: 44.3 µM for the first, greater than 100 µM for the second.

`COc1cc(/C=C/C(=O)O)ccc1OS(=O)(=O)O` and `O=C1NC(=S)S/C1=C/c1ccco1` cannot be ordered by TGI: greater than 100 µM for the first, greater than 100 µM for the second.

`CCC1C(=O)OCc2c1cc1n(c2=O)CCC12OCCO2` (configuration not stated) showed a TGI greater than 100 µM.

test system: LOX IMVI melanoma; experiment: inhibition of tumour cell growth, NCI panel, 48 h

`Cc1c(-c2nc(N)nc(C3CC3)c2C)nc(N)nc1C1CC1` and `COc1ccc2c(c1)[C@@]13CCN4CC5=CCO[C@H]6CC(=O)N2[C@H]1[C@H]6[C@H]5C[C@H]43` cannot be ordered by TGI: greater than 100 µM for the first, greater than 100 µM for the second.

Compared with `CC(C)(C)OC(=O)c1ccc(NCc2cc(O)ccc2O)cc1`, `NC(=O)NC(=NCc1ccccc1)NCc1ccccc1` is higher in TGI: 13.5 µM for the first, greater than 100 µM for the second.

`COc1cc(/C=C/C(=O)O)ccc1OS(=O)(=O)O` and `O=C1NC(=S)S/C1=C/c1ccco1` cannot be ordered by TGI: greater than 100 µM for the first, greater than 100 µM for the second.

`CCC1C(=O)OCc2c1cc1n(c2=O)CCC12OCCO2` (configuration not stated) gave a TGI greater than 100 µM.

test system: ACHN renal; experiment: inhibition of tumour cell growth, NCI panel, 48 h

`Cc1c(-c2nc(N)nc(C3CC3)c2C)nc(N)nc1C1CC1` and `COc1ccc2c(c1)[C@@]13CCN4CC5=CCO[C@H]6CC(=O)N2[C@H]1[C@H]6[C@H]5C[C@H]43` cannot be ordered by TGI: greater than 100 µM for the first, greater than 100 µM for the second.

First: CC(C)(C)OC(=O)c1ccc(NCc2cc(O)ccc2O)cc1
Second: NC(=O)NC(=NCc1ccccc1)NCc1ccccc1
The TGI of the first is lower: 3.46 µM for the first, greater than 100 µM for the second.

`COc1cc(/C=C/C(=O)O)ccc1OS(=O)(=O)O` and `O=C1NC(=S)S/C1=C/c1ccco1` cannot be ordered by TGI: greater than 100 µM for the first, greater than 100 µM for the second.

Compound `CCC1C(=O)OCc2c1cc1n(c2=O)CCC12OCCO2` (configuration not stated) has a TGI greater than 100 µM.

test system: MALME-3M melanoma; experiment: inhibition of tumour cell growth, NCI panel, 48 h

`Cc1c(-c2nc(N)nc(C3CC3)c2C)nc(N)nc1C1CC1` and `COc1ccc2c(c1)[C@@]13CCN4CC5=CCO[C@H]6CC(=O)N2[C@H]1[C@H]6[C@H]5C[C@H]43` cannot be ordered by TGI: greater than 100 µM for the first, greater than 100 µM for the second.

First: CC(C)(C)OC(=O)c1ccc(NCc2cc(O)ccc2O)cc1
Second: COc1cc(/C=C/C(=O)O)ccc1OS(=O)(=O)O
The TGI of the first is lower: 3.99 µM for the first, greater than 100 µM for the second.

test system: U251 CNS; experiment: inhibition of tumour cell growth, NCI panel, 48 h

`Cc1c(-c2nc(N)nc(C3CC3)c2C)nc(N)nc1C1CC1` and `COc1ccc2c(c1)[C@@]13CCN4CC5=CCO[C@H]6CC(=O)N2[C@H]1[C@H]6[C@H]5C[C@H]43` cannot be ordered by TGI: greater than 100 µM for the first, greater than 100 µM for the second.

Compared with `CC(C)(C)OC(=O)c1ccc(NCc2cc(O)ccc2O)cc1`, `NC(=O)NC(=NCc1ccccc1)NCc1ccccc1` is higher in TGI: 9.32 µM for the first, greater than 100 µM for the second.

`COc1cc(/C=C/C(=O)O)ccc1OS(=O)(=O)O` and `CCC1C(=O)OCc2c1cc1n(c2=O)CCC12OCCO2` (configuration not stated) cannot be ordered by TGI: greater than 100 µM for the first, greater than 100 µM for the second.

test system: SK-MEL-28 melanoma; experiment: inhibition of tumour cell growth, NCI panel, 48 h

`Cc1c(-c2nc(N)nc(C3CC3)c2C)nc(N)nc1C1CC1` and `COc1ccc2c(c1)[C@@]13CCN4CC5=CCO[C@H]6CC(=O)N2[C@H]1[C@H]6[C@H]5C[C@H]43` cannot be ordered by TGI: greater than 100 µM for the first, greater than 100 µM for the second.

First: CC(C)(C)OC(=O)c1ccc(NCc2cc(O)ccc2O)cc1
Second: NC(=O)NC(=NCc1ccccc1)NCc1ccccc1
The TGI of the first is lower: 5.28 µM for the first, greater than 100 µM for the second.

`COc1cc(/C=C/C(=O)O)ccc1OS(=O)(=O)O` and `O=C1NC(=S)S/C1=C/c1ccco1` cannot be ordered by TGI: greater than 100 µM for the first, greater than 100 µM for the second.

In the case of `CCC1C(=O)OCc2c1cc1n(c2=O)CCC12OCCO2` (configuration not stated), the TGI is reported as greater than 100 µM.

test system: OVCAR-8 ovarian; experiment: inhibition of tumour cell growth, NCI panel, 48 h

`Cc1c(-c2nc(N)nc(C3CC3)c2C)nc(N)nc1C1CC1` and `COc1ccc2c(c1)[C@@]13CCN4CC5=CCO[C@H]6CC(=O)N2[C@H]1[C@H]6[C@H]5C[C@H]43` cannot be ordered by TGI: greater than 100 µM for the first, greater than 100 µM for the second.

`CC(C)(C)OC(=O)c1ccc(NCc2cc(O)ccc2O)cc1` and `NC(=O)NC(=NCc1ccccc1)NCc1ccccc1` cannot be ordered by TGI: greater than 55.2 µM for the first, greater than 100 µM for the second.

`COc1cc(/C=C/C(=O)O)ccc1OS(=O)(=O)O` and `O=C1NC(=S)S/C1=C/c1ccco1` cannot be ordered by TGI: greater than 100 µM for the first, greater than 100 µM for the second.

`CCC1C(=O)OCc2c1cc1n(c2=O)CCC12OCCO2` (configuration not stated) showed a TGI greater than 100 µM.

test system: HOP-62 NSCLC; experiment: inhibition of tumour cell growth, NCI panel, 48 h

`Cc1c(-c2nc(N)nc(C3CC3)c2C)nc(N)nc1C1CC1` and `COc1ccc2c(c1)[C@@]13CCN4CC5=CCO[C@H]6CC(=O)N2[C@H]1[C@H]6[C@H]5C[C@H]43` cannot be ordered by TGI: greater than 100 µM for the first, greater than 100 µM for the second.

First: CC(C)(C)OC(=O)c1ccc(NCc2cc(O)ccc2O)cc1
Second: NC(=O)NC(=NCc1ccccc1)NCc1ccccc1
The TGI of the first is lower: 41.3 µM for the first, greater than 100 µM for the second.

`COc1cc(/C=C/C(=O)O)ccc1OS(=O)(=O)O` and `CCC1C(=O)OCc2c1cc1n(c2=O)CCC12OCCO2` (configuration not stated) cannot be ordered by TGI: greater than 100 µM for the first, greater than 100 µM for the second.

test system: OVCAR-4 ovarian; experiment: inhibition of tumour cell growth, NCI panel, 48 h

`Cc1c(-c2nc(N)nc(C3CC3)c2C)nc(N)nc1C1CC1` and `COc1ccc2c(c1)[C@@]13CCN4CC5=CCO[C@H]6CC(=O)N2[C@H]1[C@H]6[C@H]5C[C@H]43` cannot be ordered by TGI: greater than 100 µM for the first, greater than 100 µM for the second.

Going from `CC(C)(C)OC(=O)c1ccc(NCc2cc(O)ccc2O)cc1` to `NC(=O)NC(=NCc1ccccc1)NCc1ccccc1`, the TGI rises from 5.59 µM to greater than 100 µM.

`COc1cc(/C=C/C(=O)O)ccc1OS(=O)(=O)O` and `O=C1NC(=S)S/C1=C/c1ccco1` cannot be ordered by TGI: greater than 100 µM for the first, greater than 100 µM for the second.

Compound `CCC1C(=O)OCc2c1cc1n(c2=O)CCC12OCCO2` (configuration not stated) has a TGI greater than 100 µM.
